Data: PubChem BioAssay AID651996 (Sanford-Burnham Center for Chemical Genomics, 2013)
The source made the active and inactive calls.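 Rule for the calls: active = compounds whose half-maximal inhibitory concentration of the SKN-1 reporter ratio in worms is 20 µM or lower; inactive = the rest.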

test system: C. elegans VP596 Pgst-4::GFP/RFP ratio, acrylamide-induced, 24 h; experiment: SKN-1 inhibitor analogs in C. elegans, SAR follow-up, whole organism, GFP/RFP fluorescence ratio, strain VP596 (AID 651996)

Question: For O=C(Nc1nc(-c2ccccc2)cs1)c1cccs1, which IC50 is on record?
Answer: 16.9 µM

Question: For CC(C)c1ccc(C(=O)Nc2ccc(CN3CCOCC3)cc2)cc1, which IC50 is on record?
Answer: 4.74 µM

Question: How did the IC50 turn out when O=C(Nc1nc2c(ccc3ccccc32)s1)c1ccco1 was run?
Answer: 16.9 µM

Question: How did the IC50 turn out when Clc1ccc(-c2nnc(-c3ccccc3)o2)c(Cl)c1 was run?
Answer: 0.64 µM

Question: How did the IC50 turn out when Brc1ccc(CSc2nnc(-c3ccco3)o2)cc1 was run?
Answer: 7.06 µM

Question: Clc1ccccc1-c1nc(-c2ccncc2)no1 was tested. Which IC50 did it give?
Answer: 7.94 µM

Question: With c1ccc(-c2nc(-c3ccncc3)no2)cc1 as the molecule, how does the IC50 read?
Answer: 6.15 µM

Question: Which IC50 does the source give for c1ccc(-c2csc(-c3ccncc3)n2)cc1 here?
Answer: 7.34 µM

Question: With COc1cc(CNC(C)c2ccccc2)cc(Br)c1OCc1ccc(F)cc1 (configuration not stated) as the molecule, how does the IC50 read?
Answer: > 64 µM (inactive)

Question: For Cc1ccc(CSc2nnc(-c3ccco3)o2)cc1, which IC50 is on record?
Answer: 22.7 µM (inactive)

Question: With CCOC(=O)Nc1nc(-c2ccc(F)cc2F)cs1 as the molecule, how does the IC50 read?
Answer: 4.63 µM

Question: For Fc1ccc(-c2csc(-c3ccncc3)n2)cc1, which IC50 is on record?
Answer: 1.58 µM

Question: Which IC50 does the source give for CCOC(=O)c1c(-c2ccc(-c3ccccc3)cc2)csc1NC(=O)CNCCN(C)C here?
Answer: 10.9 µM

Question: Which IC50 does the source give for O=C(/C=C/Nc1ccccc1F)c1cccs1 here?
Answer: 23.2 µM (inactive)

Question: How did the IC50 turn out when Brc1ccc(-c2nc(-c3ccccc3)no2)o1 was run?
Answer: 8.64 µM

Question: For O=C(/C=C/c1cccs1)c1ccc(Br)cc1, which IC50 is on record?
Answer: 12.4 µM

Question: Cc1nc2ccccc2cc1OCc1ccc(F)cc1 was tested. Which IC50 did it give?
Answer: 7.88 µM

Question: With CSc1cccc(NC(=O)c2cccc3cccnc23)c1 as the molecule, how does the IC50 read?
Answer: 9.32 µM

Question: For CCOc1cc(CNCCSc2nnnn2C)cc(Br)c1OCc1ccc(F)cc1, which IC50 is on record?
Answer: 17 µM

Question: c1ccc(Nc2nc(-c3cccs3)cs2)nc1 was tested. Which IC50 did it give?
Answer: 13.8 µM

Question: CCc1ccc(-c2nc(-c3ccncc3)no2)cc1 was tested. Which IC50 did it give?
Answer: 11.8 µM

Question: With O=C(/C=C/Nc1ccc(F)cc1F)c1ccco1 as the molecule, how does the IC50 read?
Answer: 23.3 µM (inactive)

Question: How did the IC50 turn out when Fc1ccc(COc2ccc(-c3nnco3)cc2)c(Cl)c1 was run?
Answer: 2.25 µM

Question: How did the IC50 turn out when O=C(/C=C/Nc1ccc(F)cc1F)c1cccs1 was run?
Answer: 8.44 µM

Question: For CCOc1ccc(-c2nc(-c3cccnc3)no2)cc1, which IC50 is on record?
Answer: 9.89 µM

Question: O=C(Nc1ccc(CN2CCOCC2)cc1)c1cc2ccccc2o1 was tested. Which IC50 did it give?
Answer: 18 µM

Question: How did the IC50 turn out when O=C(/C=C/c1ccccc1)Nc1ccc(CN2CCOCC2)cc1 was run?
Answer: 14.8 µM

Question: For COc1ccc(C(=O)Nc2nc(-c3cccs3)cs2)cc1, which IC50 is on record?
Answer: 28.9 µM (inactive)

Question: O=C(Nc1nc(-c2ccc(Cl)s2)cs1)c1ccco1 was tested. Which IC50 did it give?
Answer: 8.95 µM

Question: For Brc1ccc(CSc2nnc(-c3cccnc3)o2)cc1, which IC50 is on record?
Answer: 19.1 µM

Question: How did the IC50 turn out when Fc1ccc(COc2ccc(-c3nnco3)cc2)cc1 was run?
Answer: 4.14 µM

Question: c1ccc2sc(SCc3ccc(-c4nnco4)cc3)nc2c1 was tested. Which IC50 did it give?
Answer: 10.5 µM

Question: For O=C(Nc1nc(-c2ccc(Cl)s2)cs1)c1cccs1, which IC50 is on record?
Answer: 58.9 µM (inactive)

Question: For Clc1ccc(Nc2nc(-c3cccs3)cs2)nc1, which IC50 is on record?
Answer: 8.93 µM

Question: With Cc1oc(-c2ccc(-c3ccccc3)cc2)nc1CN(C)C1CCOC1 (configuration not stated) as the molecule, how does the IC50 read?
Answer: 15.5 µM

Question: For O=C(/C=C/Nc1ccc(F)c(F)c1)c1cccs1, which IC50 is on record?
Answer: 14.3 µM

Question: Which IC50 does the source give for Cc1ccc(-c2noc(-c3cccs3)n2)cc1 here?
Answer: 10.7 µM

Question: For O=C(Nc1nc(-c2ccc(Cl)s2)cs1)c1ccccc1, which IC50 is on record?
Answer: 13 µM

Question: Which IC50 does the source give for O=C(/C=C/Nc1ccc(Br)cc1F)c1ccco1 here?
Answer: 12.2 µM

Question: How did the IC50 turn out when Cc1ccc(Nc2nc(-c3cccs3)cs2)nc1 was run?
Answer: 21.8 µM (inactive)

Question: For c1ccc(-c2csc(Nc3ccccn3)n2)cc1, which IC50 is on record?
Answer: 8.17 µM

Question: How did the IC50 turn out when Fc1ccc(-c2csc(Nc3ccccn3)n2)cc1 was run?
Answer: 3.81 µM

Question: Which IC50 does the source give for Brc1ccc(-c2nnc(-c3ccco3)o2)cc1 here?
Answer: 13.8 µM

Question: With O=C(Nc1nccs1)c1ccc2ccccc2n1 as the molecule, how does the IC50 read?
Answer: 6.84 µM

Question: With O=C(/C=C/Nc1ccc(F)c(Cl)c1)c1ccco1 as the molecule, how does the IC50 read?
Answer: 12.5 µM

Question: How did the IC50 turn out when Cc1ccc(N=C/C(C(=O)C(F)(F)F)=C(\O)c2ccco2)cc1Cl was run?
Answer: 33.1 µM (inactive)

Question: For Cc1cc(OCc2cccc(Cl)c2)c(C)cc1CN1CCOCC1, which IC50 is on record?
Answer: 7.19 µM

Question: How did the IC50 turn out when Clc1ccc(-c2nnc(-c3ccco3)o2)cc1 was run?
Answer: 14.3 µM

Question: How did the IC50 turn out when O=C(/C=C/c1ccc(Br)cc1)c1ccc(NC2=NCCCS2)cc1 was run?
Answer: 9.32 µM

Question: Which IC50 does the source give for Cc1ccccc1-c1noc(-c2cccs2)n1 here?
Answer: 6.42 µM

Question: With Clc1ccccc1-c1nnc(-c2ccccc2Cl)o1 as the molecule, how does the IC50 read?
Answer: 24.9 µM (inactive)

Question: How did the IC50 turn out when c1ccc2oc(SCc3nc4ccccc4s3)nc2c1 was run?
Answer: 15.5 µM

Question: Which IC50 does the source give for COc1cc(CNC(C)(C)CO)cc(Br)c1OCc1ccc(Cl)cc1 here?
Answer: 26.2 µM (inactive)

Question: How did the IC50 turn out when c1ccc(SCc2cc(-c3ccccc3)no2)cc1 was run?
Answer: 7.39 µM

Question: For CCOc1cc(CNC2CCCC2)cc(Cl)c1OCc1ccc(F)cc1, which IC50 is on record?
Answer: 4.49 µM

Question: How did the IC50 turn out when COc1cc(CNC2CCCC2)cc(Cl)c1OCc1ccc(F)cc1 was run?
Answer: 7.21 µM

Question: CCOc1cc(CNC2CCCC2)cc(Cl)c1OCc1ccccc1 was tested. Which IC50 did it give?
Answer: 9.86 µM
